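These data come from cells grown in 96-well plates and exposed to compound for 48 hours at five concentrations. GI50: concentration for 50% inhibition of growth. TGI marks complete inhibition of growth.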
Columns and labels:
Assay in all cases: inhibition of tumour cell growth, NCI panel, 48 h
[1] = test system: SK-OV-3 ovarian
[2] = test system: A549 NSCLC
[3] = test system: SK-MEL-5 melanoma
[4] = test system: HCC-2998 colon
[5] = test system: OVCAR-5 ovarian
[6] = test system: SK-MEL-2 melanoma
[7] = test system: SN12C renal
[8] = test system: EKVX NSCLC
[9] = test system: CCRF-CEM leukemia
[10] = test system: HOP-62 NSCLC

SMILES	GI50 [1] [µM]	TGI [1] [µM]	GI50 [2] [µM]	TGI [2] [µM]	GI50 [3] [µM]	TGI [3] [µM]	GI50 [4] [µM]	TGI [4] [µM]	GI50 [5] [µM]	TGI [5] [µM]	GI50 [6] [µM]	TGI [6] [µM]	GI50 [7] [µM]	TGI [7] [µM]	GI50 [8] [µM]	TGI [8] [µM]	GI50 [9] [µM]	TGI [9] [µM]	GI50 [10] [µM]	TGI [10] [µM]
O=C(c1ccccc1)C(Br)C(Br)c1ccccc1 (stereo unspecified)	15.3	28.8	18.3	39.2	12.6	25.6	13.3	26.3	14.5	27.7	10.7	24.6	10.4	22.6	14.6	32.7	–	–	–	–
N/C(=N\C(N)=N\c1nc2ccccc2s1)c1cnccn1	1.84	3.83	–	–	2.29	5.89	–	–	3.68	> 100	1.95	4.63	4.18	> 100	4.08	> 100	3.59	> 100	2.92	16.1
NC(=O)c1ncn(C2OC(CO)C(O)C2O)c1N (stereo unspecified)	> 100	> 100	> 100	> 100	> 100	> 100	> 100	> 100	> 100	> 100	> 100	> 100	> 100	> 100	> 100	> 100	–	–	> 100	> 100
COC(=O)[C@]1(C)CCC[C@]2(C)[C@@H]1CCC13C[C@@H](C=CO1)[C@@H](C)CC32O (stereo partly specified)	> 100	> 100	33.1	> 100	34	> 100	–	–	> 100	> 100	> 100	> 100	> 100	> 100	2.07	> 100	–	–	> 100	> 100
COc1ccc(/C=C/C(C)=N/OCC(=O)Nc2ccc(Cl)cc2)cc1	5.27	42.4	3.06	45.6	2.36	7.98	3.75	15.8	5.45	> 77.3	3.69	13.5	2.8	> 47.7	–	–	2.41	29.9	5.06	27.5
O=C(N/N=C/c1ccc(F)cc1)c1ccc(C(F)(F)F)nc1Nc1cccc(C(F)(F)F)c1	1.17	4.56	2.29	6.15	1.62	4.48	0.902	4.96	1.34	9.12	–	–	1.63	7.73	0.713	4.64	–	–	1.2	4.85
CCCCCCCCCCCCOC1C(C(CC(=O)N2CCN(Cc3ccc4c(c3)OCO4)CC2)NS(=O)(=O)c2cc(Cl)cc(Cl)c2)OC2OC(C)(C)OC21 (stereo unspecified)	> 100	> 100	8.48	> 100	39.3	> 100	5.54	> 51.4	6.49	> 100	47.9	> 100	15.6	43.2	19.1	> 100	–	–	86.5	> 100
CCOc1ccc(Nc2nc(-c3c(C)nc4ncccn34)cs2)cc1	0.017	5.48	0.0268	20.5	0.0453	1.96	0.0522	15.7	0.0362	19	0.0389	21.7	0.0769	28.2	–	–	0.0291	17.3	0.0306	18.4
O=C1CNN=C(Cn2nc(-c3ccccc3)c3ccccc3c2=O)N1	–	> 100	–	> 100	–	> 100	–	> 100	–	> 100	–	> 100	–	> 100	–	–	–	> 100	–	> 100
COC(=O)[C@H](Cc1cn(C)cn1)NC(=O)[C@@H](NC(=O)Nc1cc(C(F)(F)F)cc(C(F)(F)F)c1)C(C)C	> 10	> 10	> 10	> 10	2.98	> 10	1.81	3.46	> 10	> 10	> 10	> 10	1.88	3.97	–	–	3.15	> 10	2.91	9.07
O=C(/C=C(\[O-])c1ccccc1)CCCCCCC(=O)/C=C(\[O-])c1ccccc1.O=C(/C=C(\[O-])c1ccccc1)CCCCCCC(=O)/C=C(\[O-])c1ccccc1.O=C(/C=C(\[O-])c1ccccc1)CCCCCCC(=O)/C=C(\[O-])c1ccccc1.[Nd+3].[Nd+3]	> 50	> 50	> 50	> 50	> 50	> 50	> 50	> 50	> 50	> 50	> 50	> 50	> 50	> 50	> 50	> 50	–	–	> 50	> 50
CCSc1ncc(Br)c(Sc2nc(N)nc3nc[nH]c23)n1	2.76	48.9	21	> 100	3.8	49.8	2.78	32.2	5.83	> 100	4.19	> 100	4.52	> 100	3.4	> 100	–	–	1.64	24.4
OCC#Cc1ccccc1C#Cc1ccc(C#Cc2ccccc2)cc1	–	–	15.3	33.3	11.8	25.8	–	–	17.7	34.9	51.4	> 100	19	35.6	25.2	77.9	–	–	–	–
Cc1ccc(S(=O)(=O)N2CCC(C(=O)O)(c3ccccc3)CC2)cc1	–	> 100	–	> 100	–	> 100	–	–	–	> 100	–	> 100	–	> 100	–	> 100	–	> 100	–	> 100
COc1cc(CCc2ccc(OC(C)=O)cc2)cc(OC)c1OC	–	–	–	> 100	–	> 100	–	–	–	> 100	–	–	–	> 100	–	> 100	–	> 100	–	> 100
CCOc1ccccc1NC(=O)C1=C(C)NC(C)=C(C(=O)Nc2ccccc2OCC)C1c1ccc([N+](=O)[O-])cc1	–	> 100	–	> 100	–	–	–	> 100	–	> 100	–	> 100	–	> 100	–	> 100	–	–	–	> 100
CC(=O)[O-].[Mn+3].[O-]c1ccc(Cl)cc1C=NCCN=Cc1cc(Cl)ccc1[O-]	> 100	> 100	> 100	> 100	88.5	> 100	66.3	> 100	–	–	> 100	> 100	> 100	> 100	–	–	22.2	> 100	–	–
COc1ccc2c(c1)[n+](=O)c(C(C)=O)c(C)n2[O-]	–	> 100	–	> 100	–	> 100	–	> 100	–	> 100	–	> 100	–	> 100	–	> 100	–	–	–	> 100
COC(=O)c1sc(=NC(=S)N2CCCCC2)sc1C(=O)OC	–	> 100	–	–	–	> 100	–	> 100	–	–	–	> 100	–	> 100	–	–	–	> 100	–	> 100
c1ccc2c3c([nH]c2c1)C1C2CCCCN2C(c2ccncc2)N1CC3 (stereo unspecified)	–	> 100	–	> 100	–	> 100	–	–	–	> 100	–	> 100	–	> 100	–	> 100	–	> 100	–	> 100
OCC(O)C(O)C(O)C(O)c1nn[nH]n1 (stereo unspecified)	–	> 100	–	> 100	–	> 100	–	–	–	> 100	–	> 100	–	> 100	–	> 100	–	> 100	–	> 100
CCCCC[C@@H](C/C=C/CCC(=O)NC/C(=C/Cl)[C@H]1C(=O)C(C)(C)C(=O)[C@@H](C)[C@@]1(C)O)OC	30.8	68.7	16.2	33.3	17.3	32.1	–	–	18.9	34.7	17.3	31.9	17.3	32	13.5	30.5	3.27	15.7	–	–
Oc1ccccc1C=Nc1nc(OCc2ccccc2)nc2[nH]ncc12	25.9	55.4	38.7	> 100	15.1	29.7	20.2	38.1	27.2	83.9	32.2	> 100	17.2	40.7	30.1	97.8	–	–	26.2	84.8
Nc1ncnc2c1nc(Cl)n2C1OC(CO)C(O)C1O (stereo unspecified)	–	> 100	–	> 100	–	> 42.2	–	–	–	98.6	–	> 100	–	> 100	–	> 71.1	–	> 25.5	–	> 100

Source: PubChem BioAssay (NCI)
